Where “and” joins values, the source holds several entries; their conditions need not be identical. Equal values may be shown once. Entries after “also recorded” stand apart in the source; their conditions may differ.
Experiments:
CBE cells = experiment: Airway hydration / surface liquid retention (in vitro CBE model); assay type: cell-based, canine; conditions: 10 μM, 50 μL applied apically, 8 hours
Procedure: Primary CBE cells are plated onto collagen-coated, porous membranes maintained at an air-liquid interface to assess maintenance of surface liquid volume over time. At the start of the experiment, each 12 mm snapwell insert was removed from the plate containing air-liquid interface culture media, blotted dry, weighed, and 50 μL of vehicle (0.1% DMSO), or ENaC blocker (10 μM in 0.1% DMSO) applied to the apical surface and the mass was recorded. The inserts were immediately returned to a transwell plate (500 μL, Krebs Ringer Bicarbonate (KRB), pH 7.4 in lower chamber) and placed in a 37° C., 5% CO2 incubator. To reduce artifact due to an apical carbohydrate osmotic gradient upon water loss, glucose was not included in the apical buffer. […] The mass of surface liquid was converted to volume in μL. Data are reported as % initial volume (100%=50 μL).
The duration of sodium transport inhibition was determined indirectly by measuring the buffer retained after a 50 μl volume of experimental buffer was added to the apical surface of CBE cells.

[1] = Plasma potassium levels in sheep of the MCC study; conditions: at effective / approximate ED50 doses
Procedure: In these studies, adult sheep were restrained and nasally intubated with an endotracheal tube. Aerosolized test articles were administered over 10^−15 minutes to sheep. Radiolabeled ^99mTc-sulfur colloid (TSC, 3.1 mg/mL; containing approximately 20 mCi) was then administered at a specified time four or eight hours after test article. The radiolabeled aerosol was administered through the endotracheal tube for about 5 minutes. The sheep were then extubated, and total radioactive counts in the lung were measured every 5 minutes for a 1-hour observation period. The rate of radiolabel clearance from the lung is representative of the MCC rate in the animal. […] The model also allows for the collection of simultaneous PK/PD information through plasma and urine sampling over the test period.

[2] = sheep, in vivo, iv
[3] = tested on: mucociliary clearance (MCC); experiment: Mucociliary clearance (MCC) studies in sheep; assay type: in vivo; conditions: for AUC / Initial Slope (4.0-4.5 h): Table 10, 4 mL, 4 h post-dose
Procedure: Assay 2. Mucociliary Clearance (MCC) Studies in Sheep
The animal model that has been used most often to measure changes in MCC is the sheep model.
In these studies, adult sheep were restrained and nasally intubated with an endotracheal tube. Aerosolized test articles were administered over 10^−15 minutes to sheep. Radiolabeled ^99mTc-sulfur colloid (TSC, 3.1 mg/mL; containing approximately 20 mCi) was then administered at a specified time four or eight hours after test article. The radiolabeled aerosol was administered through the endotracheal tube for about 5 minutes. The sheep were then extubated, and total radioactive counts in the lung were measured every 5 minutes for a 1-hour observation period. The rate of radiolabel clearance from the lung is representative of the MCC rate in the animal. The advantage of this system is that it closely simulates the human lung environment. The model also allows for the collection of simultaneous PK/PD information through plasma and urine sampling over the test period. There are also several techniques to measure the drug concentrations on the airway surface during the MCC measurements. These include the collection of exhaled breath condensates or a filter paper method to obtain ASL via bronchoscopy.
Test solutions were aerosolized using a Raindrop nebulizer at a flowrate of eight liters per minute and connected to a dosimetry system consisting of a solenoid valve and a source of compressed air (20 psi). […] Using a Raindrop nebulizer, radiolabeled TSC was administered over approximately 3 minutes either 4 or 8 hours after drug treatment to evaluate efficacy/durability. Radioactive counts were measured in a central region in the right lung at 5 min intervals for one hour with a gamma camera.

Log D = assay type: physicochemical
HBE cells = experiment: Airway surface liquid drug clearance and metabolism by human airway epithelium; conditions: 25 μL of 25 μM on apical surface of HBE, 37° C.
Source text: Assay 3. d. Airway Surface Liquid Drug (ASL) Clearance and Metabolism by Human Airway Epithelium

Human plasma metabolism = assay type: in vitro ADME; conditions: read-out: Human Plasma Metabolism (t½)
[4] = Human plasma protein binding; assay type: in vitro ADME
[5] = sheep MCC model, given as concentration

N=C(N)NC(=O)c1nc(Cl)c(N)nc1N [Amiloride, amiloride]
surface liquid retained (% initial volume) (CBE cells): 25±19.2%

N=C(NCCCCc1ccc(OCCN(C[C@H](O)[C@@H](O)[C@H](O)[C@H](O)CO)C[C@H](O)[C@@H](O)[C@H](O)[C@H](O)CO)cc1)NC(=O)c1nc(Cl)c(N)nc1N [Comparative Example 1]
effect on plasma potassium [1]: causes a rise in plasma potassium | dose recovered in urine [2]: 43% | ED50 ([3]; Ovis aries, sheep MCC at 8 hrs, read-out: Approximate ED50): ~0.24 µmol/kg | AUC, % of maximal effect ([3]; Table 7, 3000 μM, 8 hrs): (47%) | AUC, change from vehicle ([3]; Table 7, 3000 μM, 8 hrs): 2.9 % CI*h | Max Clearance, % of maximal effect ([3]; Table 7, 3000 μM, 8 hrs): (31%) | Max Clearance, change from vehicle ([3]; Table 7, 3000 μM, 8 hrs): 4% | Slope (8-8.5 h), % of maximal effect ([3]; Table 7, 3000 μM, 8 hrs): (60%) | Slope (8-8.5 h), change from vehicle ([3]; Table 7, 3000 μM, 8 hrs): 6.1 | Approximate ED50 ([3]; sheep MCC at 8 hrs, listed as Comp. Ex. 1): ~240 nmol/kg | ED50 (AUC=47%) [3, 5]: approximately 3000 μM | approximate ED50 dose [3, 5]: ~3000 µM

N=C(NCCCCc1ccc(OC[C@H](N)C(N)=O)cc1)NC(=O)c1nc(Cl)c(N)nc1N [Comparative Example 4, (S)-3,5-diamino-6-chloro-N-(N-(4-(4-(2,3-diamino-3-oxopropoxy)phenyl)butyl)carbamimidoyl)pyrazine-2-carboxamide]
effect on plasma potassium [1]: has elevations of plasma K; also recorded: significant increase in plasma potassium levels | logD (Log D): 0.64 | AUC ([3]; 11.2 μg/kg): 6.9 ± 1.0 % CI × h | Initial Slope (4.0-4.5 h) ([3]; 11.2 μg/kg): 14.5 ± 1.3 | AUC ([3]; 112 μg/kg): 14.1 ± 2.2 % CI × h | Initial Slope (4.0-4.5 h) ([3]; 112 μg/kg): 32.2 ± 7.3 | approximate ED50 dose [3, 5]: ~3000 µM | % of Apical Mass as Metabolites (2 h) (HBE cells): 83% and 83.0 ± 3.5% | % on Basolateral Side as Metabolites (2 h) (HBE cells): 94.7 ± 1.0% | half-life (Human plasma metabolism): 37 min | fraction unbound [4]: 0.24
